The values that follow come from BindingDB's records for doi:10.7270/Q29G5K5D (Cc_Pmlsc, 2007).

For orientation: IC50 means the concentration needed to halve the response being measured. A high value points to a need for much substance.

Some results are limits rather than exact numbers.

The target in this assay is T1, Dual specificity protein phosphatase 1 (Homo sapiens, UniProt P28562).
T1 sequence (P28562 whole entry): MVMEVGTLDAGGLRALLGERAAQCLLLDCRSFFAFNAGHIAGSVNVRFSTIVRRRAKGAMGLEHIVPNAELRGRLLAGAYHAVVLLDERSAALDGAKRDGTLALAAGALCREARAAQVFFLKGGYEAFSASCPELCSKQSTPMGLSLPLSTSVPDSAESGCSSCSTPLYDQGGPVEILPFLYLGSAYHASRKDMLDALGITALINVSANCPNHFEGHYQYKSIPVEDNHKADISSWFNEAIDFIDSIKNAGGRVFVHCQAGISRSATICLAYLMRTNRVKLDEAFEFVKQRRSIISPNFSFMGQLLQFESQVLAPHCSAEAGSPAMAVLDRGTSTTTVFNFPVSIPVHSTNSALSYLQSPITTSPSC
The assay can be described thus: MKP-1 phosphatase inhibitors, SAR follow-up, biochemical, in vitro (AID 579). The conditions noted are these: pH 7; 23 °C.
`Cn1c(N)c(C(=O)COC(=O)c2cc(-c3ccco3)nc3ccccc23)c(=O)n(C)c1=O` [2-(2-furanyl)-4-quinolinecarboxylic acid [2-(4-amino-1,3-dimethyl-2,6-dioxo-5-pyrimidinyl)-2-oxoethyl] ester] gave an IC50 of 20.6 µM.
The result for `Cn1c(=O)c(C(=O)COC(=O)c2cc(C(F)(F)F)nc3ccccc23)c(N)n(Cc2ccccc2)c1=O` [2-(trifluoromethyl)-4-quinolinecarboxylic acid [2-[4-amino-1-methyl-2,6-dioxo-3-(phenylmethyl)-5-pyrimidinyl]-2-oxoethyl] ester] reads above 50 µM; that for `CC(C)Cn1c(N)c(C(=O)COC(=O)c2cc(C3CC3)nc3ccccc23)c(=O)n(C)c1=O` [2-cyclopropyl-4-quinolinecarboxylic acid [2-[4-amino-1-methyl-3-(2-methylpropyl)-2,6-dioxo-5-pyrimidinyl]-2-oxoethyl] ester], above 50 µM; that for `Cn1c(N)c(C(=O)COC(=O)c2cc(C3CC3)nc3ccccc23)c(=O)n(Cc2ccccc2)c1=O` [2-cyclopropyl-4-quinolinecarboxylic acid [2-[6-amino-1-methyl-2,4-dioxo-3-(phenylmethyl)-5-pyrimidinyl]-2-oxoethyl] ester], 28.9 µM.
Under `Cn1c(=O)c(C(=O)COC(=O)c2cc(C(F)(F)F)nc3c(C(F)(F)F)cccc23)c(N)n(Cc2ccccc2)c1=O` [2,8-bis(trifluoromethyl)-4-quinolinecarboxylic acid [2-[4-amino-1-methyl-2,6-dioxo-3-(phenylmethyl)-5-pyrimidinyl]-2-oxoethyl] ester] stands above 50 µM.
Compound `NC(=O)NCc1ccccc1` [(phenylmethyl)urea] yielded an IC50 above 50 µM.
On to `Cn1c(N)c(C(=O)COC(=O)c2cc(C(F)(F)F)nc3c(C(F)(F)F)cccc23)c(=O)n(Cc2ccccc2)c1=O` [2,8-bis(trifluoromethyl)-4-quinolinecarboxylic acid [2-[6-amino-1-methyl-2,4-dioxo-3-(phenylmethyl)-5-pyrimidinyl]-2-oxoethyl] ester], for which the IC50 is above 50 µM.
As to `CN(C)/C=N/c1cc(=O)n(C)c(=O)n1Cc1ccccc1` [CC-PMLSC-DMA-P129], the IC50 is above 50 µM.
`Cn1c(N)c(C(=O)COC(=O)c2cc(C3CC3)nc3ccccc23)c(=O)n(C)c1=O` [2-cyclopropyl-4-quinolinecarboxylic acid [2-(4-amino-1,3-dimethyl-2,6-dioxo-5-pyrimidinyl)-2-oxoethyl] ester] gave an IC50 above 50 µM.
For `Cn1c(N)c(C(=O)COC(=O)c2cc(C(F)(F)F)nc3ccccc23)c(=O)n(C)c1=O` [2-(trifluoromethyl)-4-quinolinecarboxylic acid [2-(4-amino-1,3-dimethyl-2,6-dioxo-5-pyrimidinyl)-2-oxoethyl] ester], the IC50 is above 50 µM.
The result for `CC(C)Cn1c(N)c(C(=O)COC(=O)c2cc(-c3ccco3)nc3ccccc23)c(=O)n(C)c1=O` [2-(2-furanyl)-4-quinolinecarboxylic acid [2-[4-amino-1-methyl-3-(2-methylpropyl)-2,6-dioxo-5-pyrimidinyl]-2-oxoethyl] ester] reads 50 µM; that for `Cn1c(=O)c(C(=O)COC(=O)c2cc(C3CC3)nc3ccccc23)c(N)n(Cc2ccccc2)c1=O` [2-cyclopropyl-4-quinolinecarboxylic acid [2-[4-amino-1-methyl-2,6-dioxo-3-(phenylmethyl)-5-pyrimidinyl]-2-oxoethyl] ester], above 50 µM.
Under `CC(C)Cn1c(N)c(C(=O)COC(=O)c2cc(C(F)(F)F)nc3c(C(F)(F)F)cccc23)c(=O)n(C)c1=O` [2,8-bis(trifluoromethyl)-4-quinolinecarboxylic acid [2-[4-amino-1-methyl-3-(2-methylpropyl)-2,6-dioxo-5-pyrimidinyl]-2-oxoethyl] ester] stands above 50 µM.
`Cn1c(=O)cc(N)n(Cc2ccccc2)c1=O` [6-amino-1-benzyl-3-methyl-pyrimidine-2,4-quinone] yielded an IC50 above 50 µM.
Take `Cn1c(N)c(C(=O)COC(=O)c2cc(-c3ccccc3)nc3ccccc23)c(=O)n(C)c1=O` [2-phenyl-4-quinolinecarboxylic acid [2-(4-amino-1,3-dimethyl-2,6-dioxo-5-pyrimidinyl)-2-oxoethyl] ester]: the IC50 was above 50 µM.
The result for `CN(C)/C=N/c1cc(=O)n(Cc2ccccc2)c(=O)n1C` [CC-PMLSC-DMA-P131] reads above 50 µM.
With `CN(C)C=Nc1cc(=O)[nH]c(=O)n1CC1CC1` [CC-PMLSC- DMA-P139], the IC50 is above 50 µM.
On to `Nc1cc(=O)[nH]c(=O)n1Cc1ccccc1` [6-amino-1-benzylpyrimidine-2,4-dione], for which the half-maximal inhibitory concentration (IC50) was above 50 µM.
Under `O=C(O)c1cc(-c2ccco2)nc2ccccc12` [2-(2-furanyl)-4-quinolinecarboxylic acid] stands above 50 µM; under `Cn1c(N)c(C(=O)COC(=O)c2cc(C(F)(F)F)nc3ccccc23)c(=O)n(Cc2ccccc2)c1=O` [2-(trifluoromethyl)-4-quinolinecarboxylic acid [2-[6-amino-1-methyl-2,4-dioxo-3-(phenylmethyl)-5-pyrimidinyl]-2-oxoethyl] ester], above 50 µM.
As for `NC(=O)NCC1CC1` [1-(cyclopropylmethyl)urea], the IC50 was above 50 µM.
On to `Cn1c(N)c(C(=O)COC(=O)c2cc(-c3ccccc3)nc3ccccc23)c(=O)n(Cc2ccccc2)c1=O` [2-phenyl-4-quinolinecarboxylic acid [2-[6-amino-1-methyl-2,4-dioxo-3-(phenylmethyl)-5-pyrimidinyl]-2-oxoethyl] ester], for which the 50% inhibitory concentration (IC50) was above 50 µM.
The result for `Cn1c(N)c(C(=O)COC(=O)c2cc(C(F)(F)F)nc3c(C(F)(F)F)cccc23)c(=O)n(C)c1=O` [2,8-bis(trifluoromethyl)-4-quinolinecarboxylic acid [2-(4-amino-1,3-dimethyl-2,6-dioxo-5-pyrimidinyl)-2-oxoethyl] ester] reads above 50 µM; that for `Cn1c(=O)c(C(=O)COC(=O)c2cc(C(F)(F)F)nc3c(C(F)(F)F)cccc23)c(N)n(CC2CC2)c1=O` [2,8-bis(trifluoromethyl)-4-quinolinecarboxylic acid [2-[6-amino-1-(cyclopropylmethyl)-3-methyl-2,4-dioxo-5-pyrimidinyl]-2-oxoethyl] ester], above 50 µM; that for `N#CCC(=O)NC(=O)NCC1CC1` [2-cyano-N-(cyclopropylmethylcarbamoyl)acetamide], above 50 µM.
The result for `O=C(O)c1cc(C(F)(F)F)nc2c(C(F)(F)F)cccc12` [2,8-bis(trifluoromethyl)-4-quinolinecarboxylic acid] reads above 50 µM.
Consider `Cn1c(=O)c(C(=O)COC(=O)c2cc(-c3ccccc3)nc3ccccc23)c(N)n(Cc2ccccc2)c1=O` [2-phenyl-4-quinolinecarboxylic acid [2-[4-amino-1-methyl-2,6-dioxo-3-(phenylmethyl)-5-pyrimidinyl]-2-oxoethyl] ester], for which 50 µM corresponded to half-maximal inhibition (IC50).
Under `CN(C)/C=N/c1cc(=O)n(C)c(=O)n1CC1CC1` [CC-PMLSC-DMA-P142] stands above 50 µM; under `Cn1c(N)c(C(=O)CCl)c(=O)n(C)c1=O` [6-amino-5-(2-chloro-1-oxoethyl)-1,3-dimethylpyrimidine-2,4-dione], above 50 µM.
